The values below come from ChEMBL document CHEMBL1133455, “Synthesis of novel 5-substituted 3-amino-3,4-dihydro-2H-1-benzopyran derivatives and their interactions with the 5-HT1A receptor” (J Med Chem, 2000).

Active and inactive are the calls of the source. No cut-off for these calls is given here.

The target of test [1] is T1, 5-hydroxytryptamine receptor 1A (Rattus norvegicus, UniProt P19327).
T1 sequence (P19327 whole entry): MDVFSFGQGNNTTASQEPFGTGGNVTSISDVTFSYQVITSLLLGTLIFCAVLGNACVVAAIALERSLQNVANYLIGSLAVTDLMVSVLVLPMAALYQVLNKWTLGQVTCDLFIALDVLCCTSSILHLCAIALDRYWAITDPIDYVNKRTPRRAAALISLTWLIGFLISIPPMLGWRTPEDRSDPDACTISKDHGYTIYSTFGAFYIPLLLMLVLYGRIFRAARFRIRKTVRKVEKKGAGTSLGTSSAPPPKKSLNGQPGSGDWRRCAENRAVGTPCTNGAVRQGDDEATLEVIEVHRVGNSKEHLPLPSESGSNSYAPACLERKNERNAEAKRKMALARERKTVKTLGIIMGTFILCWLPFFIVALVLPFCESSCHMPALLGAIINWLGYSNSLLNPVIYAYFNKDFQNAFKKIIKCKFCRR
Description: In vitro binding affinity at 5-HT1A receptors assayed by displacement of [3H]8-OH-DPAT from 5-hydroxytryptamine 1A receptor in rat hippocampal membranes. The class given is cell membranes, Hippocampus, Membrane.

Test [2] has as its target T2, 5-hydroxytryptamine receptor 1A (Homo sapiens) (UniProt P08908).
T2 sequence (whole entry): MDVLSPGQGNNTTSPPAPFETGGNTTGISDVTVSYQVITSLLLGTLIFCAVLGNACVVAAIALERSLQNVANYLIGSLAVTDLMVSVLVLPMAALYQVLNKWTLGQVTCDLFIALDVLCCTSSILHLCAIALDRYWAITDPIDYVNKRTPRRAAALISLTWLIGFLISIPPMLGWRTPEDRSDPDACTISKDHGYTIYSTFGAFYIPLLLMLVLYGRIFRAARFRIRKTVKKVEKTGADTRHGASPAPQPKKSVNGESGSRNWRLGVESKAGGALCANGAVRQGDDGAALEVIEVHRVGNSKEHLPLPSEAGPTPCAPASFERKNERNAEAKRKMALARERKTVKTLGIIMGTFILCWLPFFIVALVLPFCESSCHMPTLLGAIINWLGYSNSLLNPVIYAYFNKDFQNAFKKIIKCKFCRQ
Description: Percent inhibition of vasoactive intestinal polypeptide-induced (VIP-induced) cAMP formation in GH4ZD10 cells expressing 5-HT1A receptor at 50 uM relative to 5-HT. The class given is functional, cell-based.

Test [3] deals with T3, D(2) dopamine receptor (Homo sapiens, UniProt P14416). Description: In vitro binding affinity at human cloned Dopamine receptor D2A by measuring its ability to displace [3H]raclopride from D2A receptor expressed in mouse fibroblast (LtK-) cells. The class given is cell-based.
Test [4] concerns the target T4, 5-hydroxytryptamine receptor 1A (Rattus norvegicus) (UniProt P19327).
T4 sequence (whole entry): T1 sequence (P19327 whole entry)
Description: Percent of maximum response by 5-HT when tested for inhibition of vasoactive intestinal polypeptide-induced (VIP-induced) cAMP formation assessed in GH4ZD10 cells at 50 uM concentration; No effect. The class given is functional, cell-based.

Test [5] addresses 5-hydroxytryptamine receptor 2A (Rattus norvegicus, UniProt P14842). Description: In vitro binding affinity at 5-hydroxytryptamine 2A receptor by displacement of [3H]ketanserin from rat cortex.
In test [6] the target is T3, D(2) dopamine receptor. Description: In vitro binding affinity at human cloned Dopamine receptor D2A measured by ability to displace [3H]raclopride from D2A receptor expressed in mouse fibroblast (LtK-) cells. The test is classed as cell-based.
Test [7] has as its target D(1A) dopamine receptor (Rattus norvegicus, UniProt P18901). Description: In vitro binding affinity at D1 receptor by measuring its ability to displace [3H]SCH-23390 from Dopamine receptor D1 in rat striatum.
The target in test [8] is T4, 5-hydroxytryptamine receptor 1A (Rattus norvegicus). Description: Percent of maximum response by 5-HT when tested for inhibition of vasoactive intestinal polypeptide-induced (VIP-induced) cAMP formation assessed in GH4ZD10 cells at 10 uM concentration. The test is classed as functional, cell-based.
Test [9] has as its target T1, 5-hydroxytryptamine receptor 1A. Description: In vitro binding affinity at 5-HT1A receptor by measuring its ability to displace [3H]-8-OH-DPAT from 5-hydroxytryptamine 1A receptor in rat hippocampal membranes+cortex. The test is classed as cell membranes, Hippocampus.
The target is the same in test [10]. Description: In vitro binding affinity at 5-HT1A receptor by measuring its ability to displace [3H]8-OH-DPAT from 5-hydroxytryptamine 1A receptor in rat hippocampal membranes + cortex. The class given is cell membranes, Hippocampus.

T3 sequence (P14416 whole entry): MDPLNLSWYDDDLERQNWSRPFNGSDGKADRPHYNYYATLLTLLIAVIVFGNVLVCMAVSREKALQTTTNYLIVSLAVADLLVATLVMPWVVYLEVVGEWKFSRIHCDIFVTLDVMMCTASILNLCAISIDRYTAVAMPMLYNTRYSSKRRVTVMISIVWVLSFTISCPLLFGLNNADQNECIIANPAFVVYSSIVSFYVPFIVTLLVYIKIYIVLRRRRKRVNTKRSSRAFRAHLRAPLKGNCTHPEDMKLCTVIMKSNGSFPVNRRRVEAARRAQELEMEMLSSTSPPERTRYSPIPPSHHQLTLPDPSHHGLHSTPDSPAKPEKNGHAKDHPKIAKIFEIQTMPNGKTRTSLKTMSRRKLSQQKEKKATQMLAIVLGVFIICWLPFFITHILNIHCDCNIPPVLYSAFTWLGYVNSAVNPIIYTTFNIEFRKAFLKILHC
Sequence of 5-hydroxytryptamine receptor 2A (P14842 whole entry): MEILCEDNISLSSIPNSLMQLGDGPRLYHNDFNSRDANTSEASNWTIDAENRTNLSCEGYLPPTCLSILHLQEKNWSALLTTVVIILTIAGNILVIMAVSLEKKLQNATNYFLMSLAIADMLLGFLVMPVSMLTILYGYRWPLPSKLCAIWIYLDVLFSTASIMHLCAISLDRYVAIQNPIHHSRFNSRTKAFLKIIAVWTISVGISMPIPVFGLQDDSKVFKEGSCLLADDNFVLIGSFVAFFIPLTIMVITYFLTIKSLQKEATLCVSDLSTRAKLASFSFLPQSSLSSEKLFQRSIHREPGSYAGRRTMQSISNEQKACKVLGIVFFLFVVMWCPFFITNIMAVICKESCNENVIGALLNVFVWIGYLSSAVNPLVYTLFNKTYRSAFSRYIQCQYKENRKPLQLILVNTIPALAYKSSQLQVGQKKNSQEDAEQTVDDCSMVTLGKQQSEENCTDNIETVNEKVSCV
Sequence of D(1A) dopamine receptor (P18901 whole entry): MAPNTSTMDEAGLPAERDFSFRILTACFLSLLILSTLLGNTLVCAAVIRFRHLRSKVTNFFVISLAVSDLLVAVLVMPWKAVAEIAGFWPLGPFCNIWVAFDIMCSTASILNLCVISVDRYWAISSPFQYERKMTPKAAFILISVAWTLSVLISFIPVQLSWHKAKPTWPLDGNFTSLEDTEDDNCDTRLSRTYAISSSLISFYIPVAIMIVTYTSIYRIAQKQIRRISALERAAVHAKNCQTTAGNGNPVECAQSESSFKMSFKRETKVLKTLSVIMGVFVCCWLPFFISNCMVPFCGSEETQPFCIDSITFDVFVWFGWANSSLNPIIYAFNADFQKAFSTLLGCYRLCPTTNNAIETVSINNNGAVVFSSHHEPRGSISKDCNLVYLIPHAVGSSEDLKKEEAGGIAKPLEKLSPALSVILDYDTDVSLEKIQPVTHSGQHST

`CCCN(C(C)C)[C@@H]1COc2cccc(C(C)=O)c2C1`: the Ki is 11.9 nM in test [1] and 30100 nM in test [3]. Further, the Efficacy in test [2] worked out at 128%.
The compound `CCCN(C1CCCC1)[C@H]1COc2cccc(C(=O)NC)c2C1` registered a Ki in test [1] of less than 0.3 nM. Further, in test [2], the Efficacy amounted to 70%.
With `CCCN(C(C)C)[C@@H]1COc2cccc(C(=O)NC(C)C)c2C1`, the Efficacy entry in [4] was “inactive”. Further, the Ki in test [5] was greater than 10000 nM; in [6], greater than 50000 nM; in test [7], greater than 50000 nM.
`CCCN[C@H]1COc2cccc(C(N)=O)c2C1`: the Ki in test [5] is greater than 1000 nM; in test [6] it was greater than 1000 nM; in test [1] it was 98.4 nM; in test [7] it was greater than 1000 nM. In [2], this compound gave an Efficacy of 42%.
`CCCN(CCC)[C@H]1COc2cccc(C(=O)NC(C)C)c2C1`: the Ki in test [5] is greater than 1000 nM; in [6], greater than 1000 nM; in test [1], 14 nM; in [7], greater than 1000 nM. The compound further had an Efficacy in test [2] of 58%.
For the compound `NC(=O)c1cccc2c1C[C@@H](N)CO2`, the Efficacy entry in test [4] was “inactive”. Moreover, the Ki in test [5], in [6] and in test [7] was greater than 1000 nM in each case.
Consider `CCN(C(C)C)[C@H]1COc2cccc(C(=O)NC(C)C)c2C1`, for which the inhibition constant (Ki) in [5] was greater than 1000 nM; in test [6], greater than 1000 nM; in [1], 200 nM; in test [7], greater than 1000 nM. This compound returned an Efficacy in test [8] of 34%.
The compound `CCCN(CC(C)(C)C)[C@H]1COc2cccc(C(=O)NC)c2C1` gave a Ki in test [1] of 31 nM. For the same compound, the Efficacy in test [2] came to 88%.
Taken in the same sequence, the figures for `CNC(=O)c1cccc2c1C[C@@H](NCCCCN1C(=O)CC3(CCCC3)CC1=O)CO2` were 525 nM and 61%.
For `CCCN(C1CCCC1)[C@H]1COc2cccc(C(=O)OC)c2C1`, the affinity in test [1], expressed as Ki, was 0.41 nM.
Compound `CCCN(CCCCN1C(=O)CC2(CCCC2)CC1=O)[C@@H]1COc2cccc(C(=O)NC)c2C1` registered a Ki in test [1] of less than 0.3 nM. The Efficacy in test [2] turned out to be 103%.
The like results for `CCCN(CCCCN1C(=O)CC2(CCCC2)CC1=O)[C@H]1COc2cccc(C(=O)NC)c2C1` were, in that order, 0.34 nM and 62%.
The like results for `CCCN(C(C)C)[C@H]1COc2cccc(C(=O)OC)c2C1` were, in that order, 0.32 nM and 128%.
As to `CCCN(C(C)C)[C@H]1COc2cccc(C(=O)OC(C)C)c2C1`, in test [9], the Ki worked out at 18 nM.
In test [2], `CCCN(CCC)[C@@H]1COc2cccc(C(=O)NC(C)C)c2C1` yielded an Efficacy of 95%. In addition, the Ki in [10] came to 64 nM.
`CCCN(C(C)C)[C@H]1COc2cccc(C(=O)NC(C)C)c2C1` [EBALZOTAN]: the Ki in [5] is greater than 10000 nM; in test [6] it was greater than 50000 nM; in [1] it was 7.77 nM; in [7], greater than 50000 nM. In addition, the Efficacy in test [2] stood at 74%.
`CNC(=O)c1cccc2c1C[C@H](N(CCCCN1C(=O)CC3(CCCC3)CC1=O)CC(C)C)CO2` registered a Ki in test [1] of 2.48 nM. Moreover, the Efficacy in test [2] is 123%.
With `CCCN(C1CCCC1)[C@H]1COc2cccc(C(N)=O)c2C1`, the Ki in test [5] is greater than 1000 nM; in test [6], greater than 1000 nM; in [1], less than 0.3 nM; in test [7], greater than 4000 nM. The compound further came in with an Efficacy in test [8] of 80%.
In the case of `CCCN(CC(C)C)[C@H]1COc2cccc(C(=O)NC)c2C1`, the Ki was greater than 50000 nM in test [5] and 2.37 nM in test [1]. For the same compound, the Efficacy in test [2] was 96%.
For the compound `CCCN(C(C)C)[C@H]1COc2cccc(C(C)=O)c2C1`, the affinity in [1], expressed as Ki, was 0.3 nM.
Turning to `CC(C)N[C@H]1COc2cccc(C(N)=O)c2C1`, the Ki is greater than 1000 nM in test [5], greater than 1000 nM in test [6], 397 nM in [1] and greater than 1000 nM in test [7]. In test [2], the Efficacy stood at 20%.
The compound `CCCN(C(C)C)[C@H]1COc2cccc(OC)c2C1` had a Ki in test [9] of 3.1 nM.
Regarding `CCCN(C(C)C)[C@H]1COc2cccc(C(N)=O)c2C1`, the Ki in test [5] was greater than 1000 nM; in test [6] it was greater than 50000 nM; in test [1], 0.48 nM; in test [7] it was greater than 1000 nM. The Efficacy in test [2] worked out at 75%.
`CCCN(C1CCCC1)[C@@H]1COc2cccc(C(=O)NC)c2C1` yielded a Ki in [1] of 18.5 nM. In test [2], the Efficacy was 110%.
Taken in the same sequence, the figures for `CNC(=O)c1cccc2c1C[C@H](NCCCCN1C(=O)CC3(CCCC3)CC1=O)CO2` were 24.3 nM and 82%.
In test [9], `CCCN(C(C)C)[C@@H]1COc2cccc(OC)c2C1` returned a Ki of 134 nM.
Take `CC(C)NC(=O)c1cccc2c1C[C@@H](NC(C)C)CO2`: the Efficacy entry in test [4] is “inactive”. For the same compound, the inhibition constant Ki in test [5] was greater than 10000 nM; in [6], greater than 1000 nM; in test [1], 4300 nM; in test [7], greater than 1000 nM.
The compound `CCCN(CC(C)(C)C)[C@@H]1COc2cccc(C(=O)NC)c2C1` yielded a Ki in [1] of 3.96 nM. The compound also displayed an Efficacy in test [8] of 91%.
